The inhibition is the drop in the measured response relative to a control, in per cent. What is called melting point is the temperature, or range, at which the solid turns liquid.

Series [1] has as its system platelet aggregation. Kind of series: animal or person. The settings on record: Rattus norvegicus, read-out: Aggregation inhibition (%). The series is classed as in vivo. From the text:
The positive control and the test compounds (prepared in the above examples) were formulated in 0.5% CMC-Na (carboxymethylcellulose sodium) into suspensions for administration to animals.
Animals: male SD rats, weighed about 250 g, and supplied by Shanghai Super-B&K Laboratory Animal Corp. Ltd. Animal certificate No.: 2008001605451, and license No.: SCXK (Hu); SCXK (Hu) 2008-0016.
Instruments: a centrifuge (80-2 bench top low-speed centrifuge), an automatic platelet aggregation tester (STELLEXLG-PAPER-I platelet coagulation/aggregation analyzer), and others.
Methods: the pharmacological activity test of the compounds of the present invention for platelet aggregation was performed following Born's turbidimetric method (Nature, 1962, 194(4832): 927). An agglomeration-promoting substance, adenosine diphosphate (ADP), was added to a platelet rich plasma (PRP), and stirred to allow platelets to aggregate. […] This experiment can be used to evaluate the platelet aggregation effect induced by the test compounds administrated in-vivo or in-vitro.
The PRP was adjusted with a platelet poor plasma (PPP) to maintain the platelet counts at […]. The PRP was taken into a test cup, and incubated at 37° C. for 10 min. Light transmission was adjusted to 0% with PRP and to 100% with PPP for each measurement. By using ADP (with a final concentration of 5 μM) as an inducer, the platelet aggregation percentages were measured through the turbidimetric method using a platelet aggregation tester, and statistically compared by t-test. The platelet aggregation inhibition was calculated by the equation: platelet aggregation inhibition (%)=[1−(aggregation percent in dosed tube/aggregation percent in control tube)]×100%.

[2] abbreviates: male SD rats, oral gavage 3 mg/kg, blood after 2 hrs, ADP 5 μM.

Molecules are shown by their SMILES. Where two headings read alike, the source gives them in different places.

`COC(=O)[C@H](c1ccccc1Cl)N1CCc2sc(OC(=O)c3ccccc3)cc2C1` [Compound I-1, (S)-Methyl 2-(2-benzoyloxy-6,7-dihydrothieno[3,2-c]pyridin-5(4H)-yl)-2-(2-chlorophenyl)-acetate] showed a melting point of 84 to 86 °C. For the same molecule, in series [1] (setting [2]), the inhibition at 3 mg/kg amounted to 41.1%.
For `COC(=O)[C@H](c1ccccc1Cl)N1CCc2sc(OC(=O)c3cccnc3)cc2C1` [Compound I-6, (S)-methyl 2-(2-nicotinoyloxy-6,7-dihydrothieno[3,2-c]pyridin-5(4H)-yl)-2-(2-chlorophenyl)-acetate], the melting point was in the range of 92 to 94 °C. The inhibition at 3 mg/kg in series [1] (setting [2]) came to 31.3%.
Regarding `CCC(C)(C)C(=O)Oc1cc2c(s1)CCN([C@H](C(=O)OC)c1ccccc1Cl)C2` [Compound I-8, (S)-Methyl 2-(2-(2,2-dimethylbutanoyloxy)-6,7-dihydrothieno[3,2-c]pyridin-5(4H)-yl)-2-(2-chlorophenyl)-acetate], the melting point is 98 to 100 °C. The inhibition at 3 mg/kg in series [1] (setting [2]) worked out at 35.7%.
In turn, `COC(=O)[C@H](c1ccccc1Cl)N1CCc2sc(OC(=O)/C=C/c3ccccc3)cc2C1` [Compound I-9, (S)-methyl 2-(2-cinnamoyloxy-6,7-dihydrothieno[3,2-c]pyridin-5(4H)-yl)-2-(2-chlorophenyl)-acetate] registered a melting point of 122 to 124 °C. Also, in series [1] (setting [2]), the inhibition at 3 mg/kg was found to be 30.3%.
Turning to `COC(=O)[C@H](c1ccccc1Cl)N1CCc2sc(OC(=O)c3ccc([N+](=O)[O-])cc3)cc2C1` [Compound I-10, (S)-methyl 2-(2-(4-nitrobenzoyloxy)-6,7-dihydrothieno[3,2-c]pyridin-5(4H)-yl)-2-(2-chlorophenyl)-acetate], the melting point was in the range of 100 to 102 °C. In addition, the inhibition at 3 mg/kg in series [1] (setting [2]) was determined as 36.8%.
In the case of `COC(=O)[C@H](c1ccccc1Cl)N1CCc2sc(OC(=O)Cc3ccccc3)cc2C1` [Compound I-12, (S)-Methyl 2-(2-phenylacetoxy-6,7-dihydrothieno[3,2-c]pyridin-5(4H)-yl)-2-(2-chlorophenyl)-acetate], in series [1] (setting [2]), the inhibition at 3 mg/kg came to 18.3%.
The same measure, in the same setting: the figure for `COC(=O)[C@H](c1ccccc1Cl)N1CCc2sc(OC(=O)OCC(C)C)cc2C1` [Compound I-15, (S)-Methyl 2-(2-(isobutoxycarbonyloxy)-6,7-dihydrothieno[3,2-c]pyridin-5(4H)-yl)-2-(2-chlorophenyl)-acetate] is 45.3%.
`COC(=O)[C@H](c1ccccc1Cl)N1CCc2sc(OC(=O)OC(C)C)cc2C1` [Compound I-16, (S)-Methyl 2-(2-(isopropoxycarbonyloxy)-6,7-dihydrothieno[3,2-c]pyridin-5(4H)-yl)-2-(2-chlorophenyl)-acetate]: the inhibition at 3 mg/kg in series [1] (setting [2]) came out at 52.7%.
The same measure, in the same setting: the figure for `COC(=O)[C@H](c1ccccc1F)N1CCc2sc(OC(C)=O)cc2C1` [Compound I-19, (S)-Methyl 2-(2-acetoxy-6,7-dihydrothieno[3,2-c]pyridin-5 (4H)-yl)-2-(2-fluorophenyl)-acetate] is 63.5%; for `COC(=O)[C@H](c1ccc(Cl)cc1)N1CCc2sc(OC(C)=O)cc2C1` [Compound I-20, (S)-Methyl 2-(2-acetoxy-6,7-dihydrothieno[3,2-c]pyridin-5(4H)-yl)-2-(4-chlorophenyl)-acetate] it is 17.6%; for `COC(=O)[C@H](c1ccccc1)N1CCc2sc(OC(C)=O)cc2C1` [Compound I-21, (S)-Methyl 2-(2-acetoxy-6,7-dihydrothieno[3,2-c]pyridin-5 (4H)-yl)-2-phenyl-acetate] it is 9.1%.
`COC(=O)[C@H](c1ccccc1Cl)N1CCc2sc(OC(=O)N3CCCC3)cc2C1` [Compound I-22, (S)-Methyl 2-(2-(pyrrolidine-1-carbonyloxy)-6,7-dihydrothieno[3,2-c]pyridin-5(4H)-yl)-2-(2-chlorophenyl)-acetate]: the inhibition at 3 mg/kg in series [1] (po, 2 h) was 20.3%.
In the case of `COC(=O)[C@@H](c1ccccc1Cl)N1CCc2sc(OC(C)=O)cc2C1` [I-2′], the inhibition at 3 mg/kg in series [1] (setting [2]) stood at 27.1%. Besides, the inhibition at 10 mg/kg in series [1] (male SD rats, oral gavage 10 mg/kg, blood after 2 hrs, ADP 5 μM) was 55.3%.

The record behind these values is patent publication US8772489B2, “Optically active 2-hydroxy tetrahydrothienopyridine derivatives, preparation method and use in manufacture of medicament thereof” (Jiangsu Vcare PharmaTech Co. Ltd., priority 2010, dated 2014).
